Source: patent US20150045312A1, “Use of Compounds Elevating Glutathione Levels for the Treatment of Autism, Autistic Spectrum Disorders and Fragile X Syndrome” (Promentis Pharmaceuticals, Inc., priority 2013, published 2015)
Each block holds one compound with its values, some of them ahead of it.

Columns and labels:
[1] = cited from earlier work
[2] = in vivo; cited from earlier work
[3] = schizophrenia, bipolar disorder, obsessive-compulsive disorder, autism; cited from earlier work
[4] = autistic patients, added to risperidone treatment; cited from earlier work
system xc− = target: T1, system xc− (Homo sapiens, UniProt Q9UPY5); assay: in vitro screening assay in human glial cells from brain astrocytoma (1321N1); format: cell-based; settings: 1321N1 cells, high system xc− expression
T1 construct: a cell line with high system xc− expression; endogenous in cells; host or cells: 1321N1 human astrocytoma cells
T1 sequence (Q9UPY5 1-501): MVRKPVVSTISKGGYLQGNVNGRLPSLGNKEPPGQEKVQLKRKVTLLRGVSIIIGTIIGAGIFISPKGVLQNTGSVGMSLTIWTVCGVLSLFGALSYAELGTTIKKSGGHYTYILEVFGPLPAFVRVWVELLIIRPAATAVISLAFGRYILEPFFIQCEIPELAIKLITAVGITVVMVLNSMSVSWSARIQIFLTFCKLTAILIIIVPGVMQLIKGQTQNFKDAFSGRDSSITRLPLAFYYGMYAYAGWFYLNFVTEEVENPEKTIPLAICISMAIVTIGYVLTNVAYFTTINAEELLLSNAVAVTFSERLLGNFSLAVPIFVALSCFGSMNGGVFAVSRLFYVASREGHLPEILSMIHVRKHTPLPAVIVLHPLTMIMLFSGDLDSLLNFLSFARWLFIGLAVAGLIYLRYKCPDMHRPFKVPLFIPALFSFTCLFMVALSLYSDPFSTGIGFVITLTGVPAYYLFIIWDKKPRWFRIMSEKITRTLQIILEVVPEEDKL
T1 sequence (P08195 1-529 partner): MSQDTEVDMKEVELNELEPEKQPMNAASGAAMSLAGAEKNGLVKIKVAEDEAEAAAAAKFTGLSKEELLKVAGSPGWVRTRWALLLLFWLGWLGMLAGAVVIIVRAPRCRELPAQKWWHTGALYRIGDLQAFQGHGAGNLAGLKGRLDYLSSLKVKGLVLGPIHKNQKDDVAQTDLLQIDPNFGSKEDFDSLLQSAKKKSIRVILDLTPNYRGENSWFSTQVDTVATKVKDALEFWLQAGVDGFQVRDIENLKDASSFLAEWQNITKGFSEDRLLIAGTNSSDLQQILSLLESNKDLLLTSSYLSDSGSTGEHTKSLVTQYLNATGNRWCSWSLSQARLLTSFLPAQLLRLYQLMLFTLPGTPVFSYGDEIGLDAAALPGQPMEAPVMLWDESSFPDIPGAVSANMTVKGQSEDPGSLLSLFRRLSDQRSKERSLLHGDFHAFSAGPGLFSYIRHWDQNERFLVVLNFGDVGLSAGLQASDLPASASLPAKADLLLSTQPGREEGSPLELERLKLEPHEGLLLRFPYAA
From the text: Using an in vitro screening assay conducted in human glial cells from brain astrocytoma (1321N1), a cell line with high system xc− expression, the compound with the following formula: […]
Using an in vitro screening assay conducted in human glial cells from brain astrocytoma (1321N1), a cell line with high System xc− expression, the compound with the following formula: […]

[5] = pre-pulse inhibition (PPI) efficacy model of neuropsychiatric disease activity; format: in vivo
[6] = elevated plus maze (EPM) efficacy model of neuropsychiatric disease activity; format: in vivo; settings: orally-active

SMILES: N[C@@H](CCC(=O)N[C@@H](CS)C(=O)NCC(=O)O)C(=O)O [glutathione]
solubility characteristics [1]: poor solubility characteristics
entry into the CNS [2]: do not readily enter the CNS

SMILES: CC(=O)N[C@@H](CS)C(=O)O [NAC, N-acetyl cysteine]
solubility characteristics [1]: poor solubility characteristics
entry into the CNS [2]: do not readily enter the CNS
symptoms of mental disorders [3]: modestly improve symptoms
irritability versus risperidone+placebo [4]: significantly decrease irritability

3H-glutamate (system xc−): significant elevations
uptake of 14C-cystine (system xc−): robust and significant decrease
SMILES: O=C(Cc1ccccc1)N[C@@H](CSC(c1ccccc1)(c1ccccc1)c1ccccc1)C(=O)O [drawing 15]

SMILES: O=C(Cc1ccccc1)N[C@@H](CSC(c1ccccc1)(c1ccccc1)c1ccccc1)C(=O)O [drawing 16]
response in PPI model compared with clozapine ([5]; at a comparable dose range, similar to clozapine): antipsychotic-like response
behavioral effects in PPI model ([5]; orally-active): significant behavioral effects
behavioral effects in EPM model [6]: significant behavioral effects
